Assay results taken from patent publication US9815796B2 (Merck Sharp & Dohme Corp., priority 2013, dated 2017).
Where two headings read alike, the source gives them in different places.

Target: Rhesus PDE2A3 (Macaca mulatta, UniProt B3VTJ2)
Experiment: PDE2 fluorescence polarization (IMAP FP) inhibition assay, rhesus enzyme
Assay type: biochemical, rhesus macaque
Procedure: The activity of the compounds in accordance with the present invention as PDE2 inhibitors may be readily determined using a fluorescence polarization (FP) methodology (Huang, W., et al., J. Biomol Screen, 2002, 7: 215).
In a typical experiment the PDE2 inhibitory activity of the compounds of the present invention was determined in accordance with the following experimental method. Rhesus PDE2A3 was amplified from rhesus macaque brain cDNA (Biochain Institute, Hayward, Calif.) using primers based on human PDE2A sequence (accession NM_002599.3) where the forward primer containing a Kozak consensus was 5′-[…]-3′ and the reverse primer was 5′-[…]-3′. Amplification with Easy-A High-Fidelity PCR cloning enzyme (Stratagene, La Jolla, Calif.) was 95° C. for 2 minutes followed by thirty three cycles of 95° C. for 40 seconds, 52° C. for 30 seconds, and 72° C. for 2 minutes 48 seconds. Final extension was 72° C. for 7 minutes. The PCR product was TA cloned into pcDNA3.3-TOPO (Invitrogen, Carlsbad, Calif.) according to standard protocol. A consensus sequence was developed from multiple clones and then deposited into GenBank (EU812167). AD293 cells (Stratagene, La Jolla, Calif.) with 70-80% confluency were transiently transfected with rhesus PDE2A3/pcDNA3.3-TOPO using Lipofectamine 2000 according to manufacturer specifications (Invitrogen, Carlsbad, Calif.). Cells were harvested 48 hours post-transfection and lysed by sonication (setting 3, 10×5 sec pulses) in a buffer containing 20 mM HEPES pH 7.4, 1 mM EDTA and Complete Protease Inhibitor Cocktail Tablets (Roche, Indianapolis, Ind.). Lysate was collected by centrifugation at 75,000×g for 20 minutes at 4° C. and supernatant utilized for evaluation of PDE2 activity. The fluorescence polarization assay for cyclic nucleotide phosphodiesterases was performed using an IMAP® FP kit supplied by Molecular Devices, Sunnyvale, Calif. (product # R8139). […] Assays were performed at room temperature in 384-well microtiter plates with an incubation volume of 20.2 μL. Solutions of test compounds were prepared in DMSO and serially diluted with DMSO to yield 8 μL of each of 10 solutions differing by 3-fold in concentration, at 32 serial dilutions per plate. […] 0% of inhibition is determined by using DMSO (1% final concentrations).
A Labcyte Echo 555 (Labcyte, Sunnyvale, Calif.) is used to dispense 200 nL from each well of the titration plate to the 384 well assay plate. Ten microliters of a solution of enzyme (1/2000 final dilution from aliquots; sufficient to produce 20% substrate conversion) was added to the assay plate. Next 10 uL of a separate solution of the substrate FAM-labeled cAMP (50 nM final concentration product # R7506 from Molecular Devices) and the activator cGMP (1 uM final concentration), prepared in the assay buffer (10 mM Tris HCl, pH 7.2, 10 mM MgCl2, 0.05% NaN3 0.01% Tween-20, and 1 mM DTT) was added to the assay plate and shaken to mix. The reaction is allowed to proceed at room temperature for 60 minutes. A binding solution is then made from the kit components, comprised of 80% Solution A, 20% Solution B and binding reagent at a volume of 1/600 the total binding solution. The enzymatic reaction is stopped by addition of 60 μL of the binding solution to each well of the assay plates and the plates are sealed and shaken for 30 seconds. The plate was incubated at room temperature for at least one hour prior to determining the fluorescence polarization (FP). The parallel and perpendicular fluorescence of each well of the plate was measured using a Tecan Genios Pro plate reader (Tecan, Switzerland) or Perkin Elmer EnVision™ plate reader (Waltham, Mass.). Fluorescence polarization (mP) was calculated from the parallel (S) and perpendicular (P) fluorescence of each sample well and the analogous values for the median control well, containing only substrate (So and Po), using the following equation: Polarization (mP)=1000*(S/So−P/Po)/(S/So+P/Po).

[1] = Rhesus PDE2, Lab A, read-out: Rhesus PDE2 Ki (nM) - Lab A
[2] = Rhesus PDE2, Lab B, read-out: Rhesus PDE2 Ki (nM) - Lab B

Sequence of Rhesus PDE2A3 (B3VTJ2 1-941): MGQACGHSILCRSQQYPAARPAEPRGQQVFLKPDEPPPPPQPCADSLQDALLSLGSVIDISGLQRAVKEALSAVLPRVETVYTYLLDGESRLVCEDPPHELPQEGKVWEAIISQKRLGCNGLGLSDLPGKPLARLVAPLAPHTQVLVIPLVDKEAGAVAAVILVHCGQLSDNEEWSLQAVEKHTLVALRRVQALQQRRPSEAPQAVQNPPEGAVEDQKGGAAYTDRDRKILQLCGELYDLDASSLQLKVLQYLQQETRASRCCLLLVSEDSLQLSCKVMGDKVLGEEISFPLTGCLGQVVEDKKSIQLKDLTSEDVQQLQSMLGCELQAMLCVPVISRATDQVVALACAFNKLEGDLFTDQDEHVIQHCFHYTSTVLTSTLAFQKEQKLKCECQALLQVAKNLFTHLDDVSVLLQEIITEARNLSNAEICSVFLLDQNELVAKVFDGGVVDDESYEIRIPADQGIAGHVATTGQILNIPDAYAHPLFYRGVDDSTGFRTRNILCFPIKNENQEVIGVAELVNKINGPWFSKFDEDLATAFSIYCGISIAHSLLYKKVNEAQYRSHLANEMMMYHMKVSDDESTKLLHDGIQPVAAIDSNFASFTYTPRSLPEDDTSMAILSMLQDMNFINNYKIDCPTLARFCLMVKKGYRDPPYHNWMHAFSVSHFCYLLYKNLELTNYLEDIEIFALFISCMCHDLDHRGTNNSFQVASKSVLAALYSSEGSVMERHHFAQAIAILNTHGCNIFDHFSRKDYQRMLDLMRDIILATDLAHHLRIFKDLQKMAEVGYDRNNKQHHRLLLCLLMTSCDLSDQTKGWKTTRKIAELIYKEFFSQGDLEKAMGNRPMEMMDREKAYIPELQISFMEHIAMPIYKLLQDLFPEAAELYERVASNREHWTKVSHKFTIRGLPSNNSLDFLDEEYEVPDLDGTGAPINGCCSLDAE

Ki [1] | Structure (SMILES) | Rhesus PDE2 % inh. at 1 uM - Lab A (Rhesus PDE2, Lab A) | Ki [2]
1570 nM | CC(C)(NC(=O)c1cc(=O)[nH]c(-c2ncccn2)n1)c1ccc(OC(F)(F)F)c(F)c1 [Example 71, N-{1-[3-fluoro-4-(trifluoromethoxy)phenyl]-1-methylethyl}-6-oxo-1,6-dihydro-2,2′-bipyrimidine-4-carboxamide] | – | –
333 nM | O=C(NC1(c2ccc(C(F)(F)F)cc2)CCCC1)c1cc(=O)[nH]c(-c2ncccn2)n1 [Example 72, 6-oxo-N-{1-[4-(trifluoromethyl)phenyl]cyclopentyl}-1,6-dihydro-2,2′-bipyrimidine-4-carboxamide] | – | –
1080 nM | O=C(NC(c1ccccc1)c1ccc(C(F)(F)F)cc1)c1cc(=O)[nH]c(-c2ncccn2)n1 (stereo not shown) [Example 78, 6-oxo-N-{phenyl[4-(trifluoromethyl)phenyl]methyl}-1,6-dihydro-2,2′-bipyrimidine-4-carboxamide] | – | –
845 nM | C[C@@H](NC(=O)c1cc(=O)[nH]c(-c2ncccn2)n1)c1cccc(C(F)(F)F)c1 [Example 80, 6-oxo-N-{(1R)-1-[3-(trifluoromethyl)phenyl]ethyl}-1,6-dihydro-2,2′-bipyrimidine-4-carboxamide] | – | –
1920 nM | COc1ccc(C(NC(=O)c2cc(=O)[nH]c(-c3ncccn3)n2)c2ccc(C(F)(F)F)cc2)cc1 (stereo not shown) [Example 87, N-{(4-methoxyphenyl)[4-(trifluoromethyl)phenyl]methyl}-6-oxo-1,6-dihydro-2,2′-bipyrimidine-4-carboxamide] | – | –
2360 nM | COc1ccc([C@@H](C)NC(=O)c2cc(=O)[nH]c(-c3ncccn3)n2)c(OC)c1 [Example 88, N-[(1R)-1-(2,4-dimethoxyphenyl)ethyl]-6-oxo-1,6-dihydro-2,2′-bipyrimidine-4-carboxamide] | – | –
732 nM | Cc1cc(C(F)(F)F)ccc1C(C)NC(=O)c1cc(=O)[nH]c(-c2ncccn2)n1 (stereo not shown) [Example 90, N-{1-[2-methyl-4-(trifluoromethyl)phenyl]ethyl}-6-oxo-1,6-dihydro-2,2′-bipyrimidine-4-carboxamide] | – | –
20 nM | O=C(N[C@@H](c1ccc(C(F)(F)F)cc1)C1CC1)c1cc(=O)[nH]c(-c2ncccn2)n1 [Example 94, N-{(R)-cyclopropyl[4-(trifluoromethyl)phenyl]methyl}-6-oxo-1,6-dihydro-2,2′-bipyrimidine-4-carboxamide] | – | –
1280 nM | CC(NC(=O)c1cc(=O)[nH]c(-c2ncccn2)n1)c1ccc(C(F)(F)F)cc1Cl (stereo not shown) [Example 96, N-{1-[2-chloro-4-(trifluoromethyl)phenyl]ethyl}-6-oxo-1,6-dihydro-2,2′-bipyrimidine-4-carboxamide] | – | –
1.5 nM | CC(C)[C@@H](NC(=O)c1cc(=O)[nH]c(-c2ncccn2)n1)c1ccc(SC(F)(F)F)cc1 [Example 97, N-[(1R)-2-methyl-1-{4-[(trifluoromethyl)sulfanyl]phenyl}propyl]-6-oxo-1,6-dihydro-2,2′-bipyrimidine-4-carboxamide] | – | –
2.6 nM | CC[C@@H](NC(=O)c1cc(=O)[nH]c(-c2ncccn2)n1)c1ccc(SC(F)(F)F)cc1 [Example 100, 6-oxo-N-[(1R)-1-{4-[(trifluoromethyl)sulfanyl]phenyl]propyl]-1,6-dihydro-2,2′-bipyrimidine-4-carboxamide] | – | –
5120 nM | C[C@@H](NC(=O)c1cc(=O)[nH]c(-c2ncccn2)n1)c1ccc(C(F)(F)F)c2ccccc12 [Example 102, 6-oxo-N-{(1R)-1-[4-(trifluoromethyl)naphthalen-1-yl]ethyl}-1,6-dihydro-2,2′-bipyrimidine-4-carboxamide] | – | –
524 nM | COc1cc(C(C)NC(=O)c2cc(=O)[nH]c(-c3ncccn3)n2)ccc1C(F)(F)F (stereo not shown) [Example 104, N-{1-[3-methoxy-4-(trifluoromethyl)phenyl]ethyl}-6-oxo-1,6-dihydro-2,2′-bipyrimidine-4-carboxamide] | – | –
3470 nM | CC(NC(=O)c1cc(=O)[nH]c(-c2ncccn2)n1)c1ncc(C(F)(F)F)cn1 (stereo not shown) [Example 105, 6-oxo-N-{1-[5-(trifluoromethyl)pyrimidin-2-yl]ethyl}-1,6-dihydro-2,2′-bipyrimidine-4-carboxamide] | – | –
21 nM | C[C@@H](NC(=O)c1cc(=O)[nH]c(-c2ncccn2)n1)c1ccc(CC(F)(F)F)cc1 [Example 107, 6-oxo-N-{(1R)-1-[4-(2,2,2-trifluoroethyl)phenyl]ethyl}-1,6-dihydro-2,2′-bipyrimidine-4-carboxamide] | – | –
342 nM | COc1cc(C(F)(F)F)ccc1[C@@H](C)NC(=O)c1cc(=O)[nH]c(-c2ncccn2)n1 [Example 109, N-{(1R)-1-[2-methoxy-4-(trifluoromethyl)phenyl]ethyl}-6-oxo-1,6-dihydro-2,2′-bipyrimidine-4-carboxamide] | – | –
1110 nM | COCc1nc(C(=O)NC(CO)c2ccc(C(F)(F)F)cc2)cc(=O)[nH]1 (stereo not shown) [Example 112, N-{2-hydroxy-1-[4-(trifluoromethyl)phenyl]ethyl}-2-(methoxymethyl)-6-oxo-1,6-dihydropyrimidine-4-carboxamide] | – | –
283 nM | COCc1nc(C(=O)NC(C)(C)c2ccc(C(F)(F)F)cc2)cc(=O)[nH]1 [Example 124, 2-(methoxymethyl)-N-{1-methyl-1-[4-(trifluoromethyl)phenyl]ethyl}-6-oxo-1,6-dihydropyrimidine-4-carboxamide] | – | –
715 nM | Cc1nc(C(=O)NC(c2ccc(F)cc2)c2ccc(C(F)(F)F)cc2)cc(=O)[nH]1 (stereo not shown) [Example 130, N-{(4-fluorophenyl)[4-(trifluoromethyl)phenyl]methyl}-2-methyl-6-oxo-1,6-dihydropyrimidine-4-carboxamide] | – | –
826 nM | COC(=O)c1ccc(C(C)(C)NC(=O)c2cc(=O)[nH]c(-c3ccccc3)n2)cc1 [Example 160, methyl 4-(1-methyl-1-{[(6-oxo-2-phenyl-1,6-dihydropyrimidin-4-yl)carbonyl]amino}ethyl)benzoate] | – | –
> 1000 nM | O=C(NC(c1ccccc1)c1ccc(C(F)(F)F)cc1)c1cc(=O)[nH]c(-c2ccccc2)n1 (stereo not shown) [Example 162, 6-oxo-2-phenyl-N-{phenyl[4-(trifluoromethyl)phenyl]methyl}-1,6-dihydropyrimidine-4-carboxamide] | 45 % inh. | 1000 nM
467 nM | C[C@@H](NC(=O)c1cc(=O)[nH]c(-c2ccccc2)n1)c1cccc(C(F)(F)F)c1 [Example 168, 6-oxo-2-phenyl-N-{(1R)-1-[3-(trifluoromethyl)phenyl]ethyl}-1,6-dihydropyrimidine-4-carboxamide] | – | –
3420 nM | CC(NC(=O)c1cc(=O)[nH]c(-c2ccccc2)n1)c1ccccc1C(F)(F)F (stereo not shown) [Example 169, 6-oxo-2-phenyl-N-{1-[2-(trifluoromethyl)phenyl]ethyl}-1,6-dihydropyrimidine-4-carboxamide] | – | –
2340 nM | CC(NC(=O)c1cc(=O)[nH]c(-c2ccccc2)n1)c1ncc(C(F)(F)F)cn1 (stereo not shown) [Example 170, 6-oxo-2-phenyl-N-{1-[5-(trifluoromethyl)pyrimidin-2-yl]ethyl}-1,6-dihydropyrimidine-4-carboxamide] | – | –

Structure (SMILES) | Ki [1] | Rhesus PDE2 % inh. at 1 uM - Lab A (Rhesus PDE2, Lab A) | Ki [2]
C[C@@H](NC(=O)c1cc(=O)[nH]c(-c2ccccc2)n1)c1ccc(C(F)(F)F)c2ccccc12 [Example 153] | > 1000 nM | 41 % inh. | ~1970 nM
O=C(NCc1c(Cl)cc(C(F)(F)F)cc1Cl)c1cc(=O)[nH]c(-c2ccccc2)n1 [Example 156] | > 1000 nM | 9 % inh. | –
